Test results from PMC8199331, “Baicalein Ameliorates Streptococcus suis-Induced Infection In Vitro and In Vivo” (International Journal of Molecular Sciences, 2021).

Target: SLY (suilysin) (Streptococcus suis, UniProt Q55996)
Test: biochemical

SLY (suilysin), sequence (Q55996 28-497 limits assumed): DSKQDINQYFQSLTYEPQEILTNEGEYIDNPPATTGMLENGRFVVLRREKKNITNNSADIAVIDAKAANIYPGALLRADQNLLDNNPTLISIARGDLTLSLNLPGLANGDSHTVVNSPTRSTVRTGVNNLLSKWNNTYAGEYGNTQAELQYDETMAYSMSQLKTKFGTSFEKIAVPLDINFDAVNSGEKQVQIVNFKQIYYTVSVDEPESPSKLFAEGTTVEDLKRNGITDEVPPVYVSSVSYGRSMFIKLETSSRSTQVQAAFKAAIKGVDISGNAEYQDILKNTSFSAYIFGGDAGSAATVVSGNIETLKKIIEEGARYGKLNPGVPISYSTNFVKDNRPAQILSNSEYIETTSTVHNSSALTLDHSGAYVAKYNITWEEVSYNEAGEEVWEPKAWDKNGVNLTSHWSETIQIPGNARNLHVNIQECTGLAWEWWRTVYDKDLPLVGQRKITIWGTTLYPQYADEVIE

O=c1cc(-c2ccccc2)oc2cc(O)c(O)c(O)c12 [Baicalein]
Kd: 865 nM
